Values after ≈ are worked out from the molar mass of the structure shown. Values joined by “and” are separate entries in the source; they are usually repeats but may differ in a detail not shown here. Equal values may be shown once. Read-outs that look alike come from different tables or passages of the source.
Key:
[1] = DPPH radical scavenging assay; conditions: for IC50: Table 3, molar units; for IC50 DPPH Assay: mean ± SEM of triplicate
Experimental: Modified methods from Sulaiman et al. and Ahmed et al. were used. Briefly, 150 µL of freshly prepared DPPH^• solution (0.4 M concentration) was carefully introduced into 96 round microplate wells each. 100 µL of sample/ standard (7.81–500 µg/mL) were added. Blanks contained only methanol and DPPH^•. Ascorbic acid (dissolved in distilled water) and quercetin (dissolved in MeOH) were used as standard. The plate was left in the dark for 25 min to activate. […] Tests were conducted in triplicate and the percentage inhibition of each sample/standard was calculated using the following equation:(1) (% DPPH inhibition)= [Ac−As/Ac] ×100 where, Ac = absorbance of DPPH radical in MeOH, As = absorbance of DPPH radical in sample or standard. IC50 values obtained from graphical plot from percentage inhibition against concentration were used to define the radial scavenging activity of each sample.

[2] = ABTS radical scavenging assay; conditions: for IC50: Table 3, molar units; for IC50 ABTS Assay: mean ± SEM of triplicate
Experimental: A method reported by Zheleva-Dimitrova et al. was adopted with slight modifications. Stock solutions of ABTS (7 mM) and potassium persulphate (2.45 mM) were prepared using distilled water. The working solution was prepared by adding 1 mL of ABTS solution to same amount of potassium persulphate solution. The reaction mixture was left overnight for 16 h to generate the intensely blue coloured ABTS^•+. 1 mL of ABTS^•+ was then added to 50 mL of MeOH and distributed (100 µL each) into a 96 microplate well containing 100 µL of serially diluted sample/ standard (7.81–125 µg/mL). Absorbance was measured at 734 nm against blank (containing sample and MeOH only). Test was conducted in triplicate. Samples were compared with trolox and ascorbic acid and percentage inhibition was calculated as follows:(2) (% ABTS inhibition)= [Ac−As/Ac] ×100 where, Ac = absorbance of ABTS^• in MeOH, As = absorbance ABTS^•+ in sample/standard.
The radical scavenging activity was determined from the IC50 values obtained from the percentage inhibition curve against different concentrations of the sample/standard.

[3] = Dot-blot staining assay, DPPH reagent; conditions: 1 mg/mL, compared to ascorbic acid positive control
Experimental: (§1) Rapid detection of the free radical scavenging activity of isolated compounds from active fractions of E. spiralis methanol extract was carried out using a method adapted from Sarian et al.. Three detection agents viz., DPPH^•, ABTS^•+ and β-carotene were used. Briefly, few drops of each compound were spotted on a TLC plate (1.5 × 8 cm) using capillary tube and dried for few minutes at room temperature. The plate was then carefully dipped in 0.5% DPPH^• in methanol for few seconds. The plate was allowed to dry and the colour change was observed. Yellow spots on a purple background indicate radical scavenging activity and intensity of the yellow colour is proportional to the antioxidant activity. A TLC-β-carotene assay was also conducted using 0.05% of β-carotene in chloroform. A few drops of each sample (1 mg/mL) was spotted on TLC plate an allowed to dry after which it was dipped into β-carotene solution for 20 s. The plate was dried completely under direct sunlight for 3 h. Yellow or orange spot on a white background indicates activity. The intensity of the colour is dependent on the extent of antioxidant activity of the compound. TLC ABTS^•+ test was performed by mixing 2.45 mM of potassium persulphate with 7 mM of ABTS and kept in the dark for 16 hours to generate ABTS^•+. Already spotted TLC plates were then dipped into it for 10 s and allowed to dry at room temperature. White or orange spots on a bluish green background indicates activity.

[4] = Dot-blot staining assay, ABTS reagent; conditions: 1 mg/mL, compared to ascorbic acid positive control
Experimental: as §1

[5] = Dot-blot staining assay, β-carotene; conditions: 1 mg/mL, compared to ascorbic acid positive control
Experimental: as §1

[6] = target: T1, α-amylase (Sus scrofa, UniProt P00690); assay: In vitro α-amylase inhibitory assay (starch-iodine method); format: biochemical; conditions: mean ± SEM of triplicate
T1 sequence (P00690 16-511): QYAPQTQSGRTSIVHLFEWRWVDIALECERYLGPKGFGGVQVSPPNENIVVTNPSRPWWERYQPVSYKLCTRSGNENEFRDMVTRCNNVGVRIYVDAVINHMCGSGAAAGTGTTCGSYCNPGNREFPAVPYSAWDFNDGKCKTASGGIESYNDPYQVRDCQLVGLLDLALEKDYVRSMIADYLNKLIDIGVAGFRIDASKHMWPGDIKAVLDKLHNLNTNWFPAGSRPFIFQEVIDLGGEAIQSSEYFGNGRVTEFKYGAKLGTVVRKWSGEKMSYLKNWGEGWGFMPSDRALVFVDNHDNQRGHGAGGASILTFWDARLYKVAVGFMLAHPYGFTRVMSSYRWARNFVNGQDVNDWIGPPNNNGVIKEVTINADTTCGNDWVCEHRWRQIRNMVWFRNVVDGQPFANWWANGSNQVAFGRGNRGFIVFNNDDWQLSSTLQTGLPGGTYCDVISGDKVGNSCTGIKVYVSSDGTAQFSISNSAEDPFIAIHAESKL
Experimental: The procedure proposed by Johnson et al. was adopted and modified for a microplate-based method carried out by Xiao et al.. Briefly, 25 µL of α-amylase solution (1 U/mL in 0.2 M phosphate buffer at pH 7) was introduced into 96 well flat bottom microplates followed by addition of 25 µL of serially diluted sample/standard (7.8–1000 µg/mL) and incubated for 5 min at 37 °C followed by 25 µL of 1% starch in buffer (boiled for 15 min) and re-incubated for 45 min at 50 °C. Next was the addition of 100 µL of 1% iodine solution and 50 µL of distilled water. The microplate was tightly covered during incubation to prevent evaporative loss. […] All determinations including sample, control, and blank were conducted in triplicate under the same reaction conditions. […] Inhibitory activity was determined using the following equation:(3) (% enzyme inhibition)= 1−[Abs/Contr] ×100 where, Abs is the absorbance of the sample or standard. Contr is the absorbance of the control without enzyme.

[7] = target: α-glucosidase (Saccharomyces cerevisiae, UniProt P53341); assay: In vitro α-glucosidase inhibitory assay (pNPG substrate); format: biochemical
α-glucosidase (Saccharomyces cerevisiae, UniProt P53341), sequence (P53341 whole entry): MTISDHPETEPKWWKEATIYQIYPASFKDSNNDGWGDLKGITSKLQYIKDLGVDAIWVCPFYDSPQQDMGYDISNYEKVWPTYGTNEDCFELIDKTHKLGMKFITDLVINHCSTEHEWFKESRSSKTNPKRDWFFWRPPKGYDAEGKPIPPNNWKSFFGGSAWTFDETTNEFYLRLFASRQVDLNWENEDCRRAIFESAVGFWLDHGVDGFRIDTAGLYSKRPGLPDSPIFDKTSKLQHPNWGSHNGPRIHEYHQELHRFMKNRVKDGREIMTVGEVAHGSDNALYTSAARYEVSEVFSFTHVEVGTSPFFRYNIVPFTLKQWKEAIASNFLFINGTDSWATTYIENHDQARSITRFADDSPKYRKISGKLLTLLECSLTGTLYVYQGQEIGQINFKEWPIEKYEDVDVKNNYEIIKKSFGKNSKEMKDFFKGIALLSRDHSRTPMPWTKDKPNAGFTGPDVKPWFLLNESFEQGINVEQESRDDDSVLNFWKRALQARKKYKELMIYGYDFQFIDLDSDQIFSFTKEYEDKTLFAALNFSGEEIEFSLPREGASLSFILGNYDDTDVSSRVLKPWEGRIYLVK
Experimental: This assay used a method adapted from Johnson et al. with slight modifications employing α-glucosidase (enzyme) obtained from Saccharomyces cerevisiae (1 U/mL) dissolved in 50 mM phosphate buffer (pH 6.9). 100 µL of enzyme (in 0.1M phosphate buffer) was added into 96 microplate well containing 50 µL of sample/ standard 7.8–1000 µg/mL and incubated at 37 °C for 10 min. Next was the addition of 50 µL of the substrate, p-nitrophenyl glucopyranoside (5 mM in 0.1 phosphate buffer at pH 6.9) and re-incubated for 5 min at 37 °C. The reaction was terminated by the addition of 100 µL of 0.1 M Na2CO3 and absorbance was measured at 405 nm.
Experiments were conducted in triplicate.

[8] = target: α-glucosidase; parameters: method as in doi:10.1016/j.foodres.2014.01.029; conditions: isolated from Rhodiola crenulata root; cited from earlier work
[9] = target: human pancreatic amylase; conditions: cited from earlier work
[10] = Table 3, molar units, read-out: IC50 α-Glucosidase (converted)
[11] = mean ± SEM of triplicate, read-out: IC50 α-Glucosidase (converted)

IC50 DPPH Assay [1]	IC50 DPPH Assay ([1]; listed as ascorbic acid)	Molecule	IC50 [1]	IC50 [2]	IC50 ABTS Assay [2]	Dot-blot spot intensity, DPPH [3]	Dot-blot spot intensity, ABTS [4]	Dot-blot spot intensity, β-carotene [5]	IC50 α-Amylase [6]	IC50 [7, 10]	IC50 [7, 11]	IC50 ([7]; IC50 α-Glucosidase, Table 3, molar units)	IC50 ([7]; IC50 α-Glucosidase, mean ± SEM of triplicate)	IC50 ([7]; read-out: IC50 α-Glucosidase (converted))	IC50 [8]	Ki [9]
24.67 ± 0.45 ^A µg/mL	5.38 ± 1.26 µg/mL (≈ 30.5 µM)	O=C1O[C@H]([C@@H](O)CO)C(O)=C1O [Ac, ascorbic acid, reference compound]	140 µM	95 µM	16.74± 1.76 ^A µg/mL											
11.29 ± 0.26 µg/mL (≈ 39.4 µM)		O=c1c(O)c(-c2ccc(O)cc2)oc2cc(O)cc(O)c12 [FEQ-3, kaempferol]	39 µM	7 µM	2.10 ± 0.51 µg/mL (≈ 7.34 µM)	strong intensity	strong intensity	strong intensity								
66.17 ± 8.03 µg/mL (≈ 192 µM)		COc1cc(O)c2c(=O)c(OC)c(-c3ccc(O)c(OC)c3)oc2c1 [FEQ-4, pachypodol]	190 µM	100 µM		low intensity	strong intensity	low intensity		220 µM	219 µM					
		Oc1cc(O)c2c(c1)O[C@H](c1ccc(O)c(O)c1)[C@H](O)C2 [FEQ-8, (−)-epicatechin]	40 µM	3.9 µM	1.12 ± 0.09 µg/mL (≈ 3.86 µM)	strong intensity	strong intensity	strong intensity	did not show any observable α-amylase inhibition	340 µM	341 µM				29.9 ± 2.2 µM	
29.82 ± 3.73 ^A µg/mL		O=c1c(O)c(-c2ccc(O)c(O)c2)oc2cc(O)cc(O)c12 [Qc, quercetin, reference compound]	99 µM													
		Cc1c(C)c2c(c(C)c1O)CCC(C)(C(=O)O)O2 (stereo not drawn) [Tx, 6-hydroxy-2,5,7,8-tetramethylchroman-2-carboxylic acid, reference compound]		61 µM	15.23 ± 2.15 ^A µg/mL											
		montbretin A														0.008 µM

Molecule	IC50 DPPH Assay [1]	IC50 DPPH Assay ([1]; listed as ascorbic acid)	IC50 [1]	IC50 [2]	IC50 ABTS Assay [2]	Dot-blot spot intensity, DPPH [3]	Dot-blot spot intensity, ABTS [4]	Dot-blot spot intensity, β-carotene [5]	IC50 α-Amylase [6]	IC50 [7, 10]	IC50 [7, 11]	IC50 ([7]; IC50 α-Glucosidase, Table 3, molar units)	IC50 ([7]; IC50 α-Glucosidase, mean ± SEM of triplicate)	IC50 ([7]; read-out: IC50 α-Glucosidase (converted))	IC50 [8]	Ki [9]
CCCCCCOC(=O)/C=C/c1ccc(O)c(OC)c1 [FEQ-2, (E)-hexyl 3-(4-hydroxy-3-methoxyphenyl) acrylate]	13.79 ± 2.13 µg/mL (≈ 49.5 µM)		50 µM	10 µM	4.69 ± 1.25 µg/mL (≈ 16.8 µM)	strong intensity	strong intensity	strong intensity	did not show any observable α-amylase inhibition	530 µM	535 µM					
O=C(O)c1cc(O)c(O)c(O)c1 [FEQ-5, gallic acid]	6.15 ± 0.38 µg/mL (≈ 36.2 µM)		36 µM	7.5 µM	1.28 ± 0.89 µg/mL (≈ 7.52 µM)	strong intensity	strong intensity	strong intensity				38 µM	38.1 µM			
Oc1cc(O)c2c(c1)O[C@H](c1ccc(O)c(O)c1)[C@@H](O)C2 [FEQ-7, (+)-catechin]	12.48 ± 1.55 µg/mL (≈ 43 µM)		43 µM	6.4 µM	1.86 ± 0.15 µg/mL (≈ 6.41 µM)	strong intensity	strong intensity	strong intensity	did not show any observable α-amylase inhibition					351 µM and 350 µM		

— paper PMC6471705, “Evaluation of the Enzyme Inhibitory and Antioxidant Activities of Entada spiralis Stem Bark and Isolation of the Active Constituents” (Molecules, 2019)
